The subject of one assay is HUVEC tube formation. In words: Endothelial tube assay (number of tubes, three-dimensional collagen gels). It is filed as cell-based, human. The protocol:
In this model, endothelial cells are suspended in a three-dimensional collagen lattice of type I collagen and undergo rapid morphogenesis. Within 4 hr numerous vacuoles are observed in the majority of endothelial cells; at 24 hr the formation of tube-like structures can be observed and at 48 hr an interconnected network of tube-like structures is observed.
Collagen gels were formed by mixing together ice-cold gelatin solution (10× M199, H2O, 0.53M NaHCO3, 200 mM L-glutamine, type I collagen, 0.1M NaOH, 100:27.2:50:10:750:62.5 by volume) and cells in 1× basal medium at a concentration of 3×10^6 cells/ml at a ratio of 4 volumes gelatin solution: 1 volume of cells. After gelation at 37 for 30 min, the gels were overlaid with IX basal medium consisting of M199 supplemented with 1%FBS, 1× ITS, 2 mM L-glutamine, 50 μg/ml ascorbic acid, 26.5 mM NaHCO3, 100 U/ml penicillin and 100 U/mil streptomycin supplemented with 40 ng/ml BFGF, 40 ng/ml VEGF and 80 nM phorbol myristate acetate (PMA). All drugs were added to the IX basal medium immediately after gelation. To quantitate tube formation, the number of tubes per high power (20× field) was determined 48 hr after addition of the basal medium Five independent fields separated by 100 μm optical sections were assessed for each well. Cytotoxicity was assessed using an XTT kit from Boehringer Mannheim (Indianapolis, Ind.).

For assay [1], the system named is VEGF-stimulated angiogenesis in rat cornea. The experiment in a line: Corneal angiogenesis assay (Hydron pellet with VEGF). It is filed as in vivo, Sprague-Dawley rats. The protocol:
A 1.5 mm incision was made approximately 1 mm from the center of the cornea of isoflurane-ketamine (60-80 mg/kg) xylazine (10-15 mg/kg) anesthetized Sprague-Dawley rats. Using a curved spatula, the incision was bluntly dissected through the stroma towards the outer canthus of the eye. A Hydron pellet […] containing VEGF (200 ng), sucralfate (100 μg) with or without (control) 15d-PGJ2 (10 μg/pellet) was inserted into the base of the pocket. After surgery, the eyes were coated with gentamicin ointment. Animals are observed at 24-48 hr for the occurrence of nonspecific inflammation and then daily thereafter. At day 6, the animals were euthanized and injected with FITC-dextran to allow for visualization of the vasculature. Corneal whole mounts were made of the enucleated eyes and analyzed for neovascular area using the computer assisted image analysis.

In the next assay the test system is MMP-2 mRNA. In words: Real time RT-PCR (Taqman) assay in HUVEC, Example 7. The conditions noted are these: 10 μM; 24 h; PMA or PMA with bFGF and VEGF. It is filed as cell-based, human. As for the experimental part:
(§1) Total RNA was extracted from HUVEC cultured in 3-D type I collagen gels for various times in 1× basal medium supplemented with 40 ng/ml bFGF, 40 ng/ml VEGF, […] PMA or the combination of PMA (80 nM), bFGF and VEGF (40 ng/mil each). […] For all mRNAs evaluated a sample of total RNA (100 ng) was added to a 50 μl RT-PCR reaction mixture according to the manufacturer's protocol (Roche Molecular Systems, Inc., Branchburg, N.J.). The thermal cycling conditions included 1 cycle at 48° C. for 30 min, 1 cycle at 95° C. for 10 min, 40 cycles at 95° C. for 15 s, at 60° C. for 1 min, and finally hold at 25° C. for 2 min. Standard curves for expression of each gene were generated by serial dilution of the total RNA isolated from U937 cells. […] Therefore, the relative mRNA expression of each gene was normalized to the level of GAPDH in the same RNA preparation.

The subject of a further assay is MMP-3 mRNA. The assay is described as above. Type of assay: cell-based, human. The protocol: as §1
For the next assay, the system named is MMP-9 mRNA. The description is as above. The conditions noted are these: 10 μM; 24 h; PMA or PMA with bFGF and VEGF. It is filed as cell-based, human. As for the experimental part:
as §1

Another assay concerns TIMP-1 mRNA. Described as above. Type of assay: cell-based, human. The conditions noted are these: 10 μM; bFGF, VEGF and PMA; at 4 h or 24 h. The protocol:
as §1

For the next assay, the system named is TIMP-2 mRNA. The assay is described as above. It is filed as cell-based, human. The note with it: 10 μM; bFGF, VEGF and PMA; at 4 h. The protocol: as §1

For orientation: IC50 means the concentration that inhibits the measured activity by half. For `CCCCC/C=C/C=C1/C(=O)C=CC1C/C=C\CCCC(=O)O` (stereo not shown) [15d-PGJ2, 15-deoxy-delta^12,14-PGJ2], the “effect on tube formation (FIG. 1B)” value in the assay on HUVEC tube formation (10 μM, 48 hr) is reported as “inhibitory effects”. Besides, in the assay with HUVEC tube formation (HUVEC in collagen gels with bFGF, VEGF and PMA, tubes counted at 48 hr, read-out: inhibition of tube formation, IC50), the IC50 worked out at 2800 nM. In addition, in assay [1] (200 ng/pellet VEGF and 10 μg/ml 15d-PGJ2, day 6 postimplantation, p<0.05, Mann-Whitney), the “area of new vessels (FIG. 4C)” value is reported as “significantly different from VEGF alone group”. The “vessel length compared to VEGF only (positive) controls” value in assay [1] (Hydron pellet, 200 ng VEGF with 10 μg 15d-PGJ2, rat cornea) was “significant reduction”. The “MMP-2 mRNA levels” value in the assay on MMP-2 mRNA was “significant suppression”. Besides, the “MMP-3 mRNA levels” value in the assay with MMP-3 mRNA (HUVEC cultured with combination of bFGF, VEGF and PMA at 24 h) is “increased”. Further, in the assay with MMP-3 mRNA (PMA-treated group), the “MMP-3 mRNA expression” value is “no effect”. The “MMP-9 mRNA levels” value in the assay with MMP-9 mRNA is “significant suppression”. For the same compound, the “expression of TIMP-1” value in the assay with TIMP-1 mRNA is reported as “did not increase”. Moreover, in the assay on TIMP-2 mRNA, the “TIMP-2 mRNA levels compared to the vehicle treated group” value is reported as “reduced”.
